Measured values as given in PubChem BioAssay AID248 (DTP/NCI, 2004).
Several values for one entry are separate records, joined by “and”; a condition that tells them apart may be missing. Equal entries are not always repeated. Inconclusive results and toxic doses are left out. No stated cut-off is given here; in the data, active means T/C of 150% or more; inactive means T/C below 125%.

Test system: L1210 leukemia ip in BDF1 mice, survival T/C
Assay: NCI In Vivo Anticancer Drug Screen. Data for tumor model L1210 Leukemia (intraperitoneal) in B6D2F1 (BDF1) mice
Conditions: endpoint: mean survival time, higher = longer survival
Summary of the method: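 Transplantable tumor model; survival measured in treated vs vehicle control mice. Value = treated/control.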

[1] = dose: 100.0 mg/kg/injection, schedule: Q01DX001 (ip), vehicle: saline with Tween-80
[2] = dose: 100.0 mg/kg/injection, schedule: Q04DX002 (ip), vehicle: Klucel (hydroxypropylcellulose) (HPC)
[3] = dose: 200.0 mg/kg/injection, schedule: Q04DX002 (ip), vehicle: Klucel (hydroxypropylcellulose) (HPC)
[4] = dose: 100.0 mg/kg/injection, schedule: Q04DX003 (ip), vehicle: Klucel (hydroxypropylcellulose) (HPC)
[5] = dose: 400.0 mg/kg/injection, schedule: Q04DX003 (ip), vehicle: Klucel (hydroxypropylcellulose) (HPC)
[6] = dose: 100.0 mg/kg/injection, schedule: Q01DX009 (ip), vehicle: Klucel (hydroxypropylcellulose) (HPC)
[7] = dose: 200.0 mg/kg/injection, schedule: Q04DX003 (ip), vehicle: Klucel (hydroxypropylcellulose) (HPC)

Measured: T/C

CCCCNC(=O)Nc1ccc(Cl)cc1
inactive: dose: 25.0 mg/kg/injection, schedule: Q01DX001 (ip), vehicle: saline with Tween-80 100 % of control | dose: 50.0 mg/kg/injection, schedule: Q01DX001 (ip), vehicle: saline with Tween-80 88 % of control | [1] 88 % of control | [2] 96 % of control | [3] 100 % of control | dose: 400.0 mg/kg/injection, schedule: Q04DX002 (ip), vehicle: Klucel (hydroxypropylcellulose) (HPC) 104 % of control

Cc1cc2c(-c3ccccc3)c(C(=O)c3ccccc3)c(C(=O)c3ccccc3)c(-c3ccccc3)c2cc1C
inactive: [1] 89 % of control | dose: 200.0 mg/kg/injection, schedule: Q01DX001 (ip), vehicle: saline with Tween-80 89 % of control | dose: 400.0 mg/kg/injection, schedule: Q01DX001 (ip), vehicle: saline with Tween-80 89 % of control

CS(=O)(=O)Oc1ccc(S(=O)(=O)F)cc1Cl
inactive: [2] 102 % of control | [3] 94 % of control

CN=C(NC)c1ccc(NC(=NC)c2ccc(C(=NC)Nc3ccc(C(=NC)NC)cc3)cc2)cc1
inactive: dose: 0.5 mg/kg/injection, schedule: Q01DX Z (ip), vehicle: saline 96 % of control | dose: 0.8 mg/kg/injection, schedule: Q01DX Z (ip), vehicle: saline 94 % of control | dose: 1.2 mg/kg/injection, schedule: Q01DX Z (ip), vehicle: saline 100 % of control | dose: 1.7 mg/kg/injection, schedule: Q01DX Z (ip), vehicle: saline 105 % of control | dose: 1.77 mg/kg/injection, schedule: Q01DX Z (ip), vehicle: saline 98 % of control | dose: 2.66 mg/kg/injection, schedule: Q01DX Z (ip), vehicle: saline 104 % of control | dose: 4.0 mg/kg/injection, schedule: Q01DX Z (ip), vehicle: saline 89 % of control | dose: 6.0 mg/kg/injection, schedule: Q01DX Z (ip), vehicle: saline 93 % of control and 103 % of control

COc1cc(C(=O)OC(C)CN2CCN(C(=O)c3cc(OC)c(OC)c(OC)c3)CC2)cc(OC)c1OC (centres undefined)
inactive: dose: 25.0 mg/kg/injection, schedule: Q01DX009 (ip), vehicle: saline 108 % of control | dose: 25.0 mg/kg/injection, schedule: Q04DX003 (ip), vehicle: saline 98 % of control | dose: 50.0 mg/kg/injection, schedule: Q01DX009 (ip), vehicle: saline 101 % of control | dose: 50.0 mg/kg/injection, schedule: Q04DX003 (ip), vehicle: saline 95 % of control | dose: 100.0 mg/kg/injection, schedule: Q01DX009 (ip), vehicle: saline 104 % of control | dose: 100.0 mg/kg/injection, schedule: Q04DX003 (ip), vehicle: saline 102 % of control | dose: 200.0 mg/kg/injection, schedule: Q01DX009 (ip), vehicle: saline 98 % of control | dose: 200.0 mg/kg/injection, schedule: Q04DX003 (ip), vehicle: saline 102 % of control | dose: 400.0 mg/kg/injection, schedule: Q04DX003 (ip), vehicle: saline 109 % of control

Clc1cccc(Cl)c1/C=N/N1CCN(/N=C/c2c(Cl)cccc2Cl)CC1
inactive: dose: 100.0 mg/kg/injection, schedule: Q01DX001 (ip), vehicle: carboxymethylcellulose (CMC) 91 % of control | dose: 200.0 mg/kg/injection, schedule: Q01DX001 (ip), vehicle: carboxymethylcellulose (CMC) 89 % of control | dose: 400.0 mg/kg/injection, schedule: Q01DX001 (ip), vehicle: carboxymethylcellulose (CMC) 91 % of control

Cc1ccc(S(=O)(=O)Nc2ccc(C(=O)Cl)cc2)cc1
inactive: dose: 100.0 mg/kg/injection, schedule: Q04DX003 (ip), vehicle: gum acacia 95 % of control | dose: 200.0 mg/kg/injection, schedule: Q04DX003 (ip), vehicle: gum acacia 106 % of control | dose: 400.0 mg/kg/injection, schedule: Q04DX003 (ip), vehicle: gum acacia 90 % of control

CCOC(=O)c1cc([N+](=O)[O-])cc2c1-c1c(cc([N+](=O)[O-])cc1[N+](=O)[O-])C2=O
inactive: dose: 12.5 mg/kg/injection, schedule: Q04DX003 (ip), vehicle: Klucel (hydroxypropylcellulose) (HPC) 98 % of control | dose: 25.0 mg/kg/injection, schedule: Q04DX003 (ip), vehicle: Klucel (hydroxypropylcellulose) (HPC) 101 % of control | dose: 50.0 mg/kg/injection, schedule: Q04DX003 (ip), vehicle: Klucel (hydroxypropylcellulose) (HPC) 103 % of control | [4] 96 % of control

O=C1C(Br)=Cc2cccc3cccc1c23
inactive: dose: 25.0 mg/kg/injection, schedule: Q01DX009 (ip), vehicle: saline sonified 100 % of control | dose: 50.0 mg/kg/injection, schedule: Q01DX009 (ip), vehicle: saline sonified 97 % of control | dose: 100.0 mg/kg/injection, schedule: Q01DX009 (ip), vehicle: saline sonified 100 % of control | dose: 100.0 mg/kg/injection, schedule: Q01DX009 (ip), vehicle: saline with Tween-80 101 % of control | [4] 90 % of control | dose: 100.0 mg/kg/injection, schedule: Q04DX003 (ip), vehicle: saline with Tween-80 97 % of control | dose: 200.0 mg/kg/injection, schedule: Q01DX009 (ip), vehicle: saline with Tween-80 104 % of control | dose: 200.0 mg/kg/injection, schedule: Q04DX003 (ip), vehicle: saline with Tween-80 95 % of control | dose: 400.0 mg/kg/injection, schedule: Q01DX009 (ip), vehicle: saline with Tween-80 97 % of control | [5] 87 % of control | dose: 400.0 mg/kg/injection, schedule: Q04DX003 (ip), vehicle: saline with Tween-80 103 % of control

COc1ccc(OC)c(NC(=O)Oc2ccccc2F)c1
inactive: dose: 50.0 mg/kg/injection, schedule: Q01DX009 (ip), vehicle: Klucel (hydroxypropylcellulose) (HPC) 97 % of control | [6] 93 % of control | [4] 90 % of control | [7] 93 % of control | [5] 92 % of control

CCCc1ccc2c(c1)CCCC2
inactive: [6] 94 % of control | [4] 94 % of control | dose: 200.0 mg/kg/injection, schedule: Q01DX009 (ip), vehicle: Klucel (hydroxypropylcellulose) (HPC) 90 % of control | [7] 93 % of control | dose: 400.0 mg/kg/injection, schedule: Q01DX009 (ip), vehicle: Klucel (hydroxypropylcellulose) (HPC) 97 % of control | [5] 94 % of control

c1ccc2cc(C3SCCS3)ccc2c1
inactive: dose: 75.0 mg/kg/injection, schedule: Q04DX003 (ip), vehicle: Klucel (hydroxypropylcellulose) (HPC) 88 % of control | dose: 100.0 mg/kg/injection, schedule: Q01DX001 (ip), vehicle: Klucel (hydroxypropylcellulose) (HPC) 95 % of control | dose: 150.0 mg/kg/injection, schedule: Q04DX003 (ip), vehicle: Klucel (hydroxypropylcellulose) (HPC) 86 % of control | dose: 200.0 mg/kg/injection, schedule: Q01DX001 (ip), vehicle: Klucel (hydroxypropylcellulose) (HPC) 97 % of control | dose: 300.0 mg/kg/injection, schedule: Q04DX003 (ip), vehicle: Klucel (hydroxypropylcellulose) (HPC) 110 % of control | dose: 400.0 mg/kg/injection, schedule: Q01DX001 (ip), vehicle: Klucel (hydroxypropylcellulose) (HPC) 101 % of control

Cc1ccc(C(=O)NO)cc1
inactive: dose: 100.0 mg/kg/injection, schedule: Q04DX003 (ip), vehicle: carboxymethylcellulose (CMC) 98 % of control | dose: 200.0 mg/kg/injection, schedule: Q04DX003 (ip), vehicle: carboxymethylcellulose (CMC) 90 % of control | dose: 400.0 mg/kg/injection, schedule: Q04DX003 (ip), vehicle: carboxymethylcellulose (CMC) 98 % of control
